These results are taken from PubChem BioAssay AID248 (DTP/NCI, 2004).

The subject of the test is L1210 leukemia ip in BDF1 mice, survival T/C. The test is described as follows: NCI In Vivo Anticancer Drug Screen. Data for tumor model L1210 Leukemia (intraperitoneal) in B6D2F1 (BDF1) mice. The note with it: endpoint: mean survival time, higher = longer survival. In short, it runs like this:
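Ratio derived from survival: compound-dosed mice over vehicle-dosed mice, all bearing a transplantable tumor.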

Setting [1] is: dose: 100.0 mg/kg/injection, schedule: Q01DX009 (ip), vehicle: Klucel (hydroxypropylcellulose) (HPC).
Where [2] appears, read: dose: 200.0 mg/kg/injection, schedule: Q01DX009 (ip), vehicle: Klucel (hydroxypropylcellulose) (HPC).
Where [3] appears, read: dose: 100.0 mg/kg/injection, schedule: Q01DX001 (ip), vehicle: carboxymethylcellulose (CMC).
[4] abbreviates: dose: 400.0 mg/kg/injection, schedule: Q01DX001 (ip), vehicle: carboxymethylcellulose (CMC).
[5] abbreviates: dose: 100.0 mg/kg/injection, schedule: Q01DX001 (ip), vehicle: saline.
The mark [6] stands for this setting: dose: 200.0 mg/kg/injection, schedule: Q01DX001 (ip), vehicle: saline.
Where [7] appears, read: dose: 400.0 mg/kg/injection, schedule: Q01DX001 (ip), vehicle: saline.
The mark [8] stands for this setting: dose: 100.0 mg/kg/injection, schedule: Q01DX009 (ip), vehicle: saline with Tween-80.
[9] abbreviates: dose: 200.0 mg/kg/injection, schedule: Q01DX009 (ip), vehicle: saline with Tween-80.
The mark [10] stands for this setting: dose: 400.0 mg/kg/injection, schedule: Q01DX009 (ip), vehicle: saline with Tween-80.
[11] abbreviates: dose: 100.0 mg/kg/injection, schedule: Q04DX003 (ip), vehicle: Klucel (hydroxypropylcellulose) (HPC).
The mark [12] stands for this setting: dose: 50.0 mg/kg/injection, schedule: Q01DX009 (ip), vehicle: saline with Tween-80.

Values joined by “and” are separate entries in the source; they are usually repeats but may differ in a detail not shown here. Equal values may be shown once. Toxic doses and inconclusive results are not listed.

On to `NC(Cc1cnc(N=Nc2ccc(S(=O)(=O)N(CCCl)CCCl)cc2)[nH]1)C(=O)O` (stereo unspecified), for which the T/C is 93 % of control (dose: 50.0 mg/kg/injection, schedule: Q01DX009 (ip), vehicle: Klucel (hydroxypropylcellulose) (HPC)); 90 % of control under setting [1]; 97 % of control under setting [2].
Turning to `CCc1nc2c(OC)ccc(OC)c2nc1C`, the T/C is, setting by setting: (dose: 75.0 mg/kg/injection, schedule: Q01DX001 (ip), vehicle: other) 96 % of control; (dose: 150.0 mg/kg/injection, schedule: Q01DX001 (ip), vehicle: other) 96 % of control.
In the case of `Cc1ccc(C(=O)c2ccccc2)c(C)c1`, the T/C runs as follows: under setting [3], 86 % of control; under setting [4], 92 % of control.
For `CC(=O)NCC(O)c1ccccc1` (stereo unspecified), the T/C under setting [5] is 94 % of control, the T/C under setting [6] is 100 % of control and the T/C under setting [7] was 91 % of control.
Turning to `CSc1nc2ncnn2c(=O)[nH]1`, the T/C (dose: 50.0 mg/kg/injection, schedule: Q04DX003 (ip), vehicle: saline) was 96 % of control; the T/C (dose: 100.0 mg/kg/injection, schedule: Q04DX003 (ip), vehicle: saline) was 94 % of control; the T/C (dose: 200.0 mg/kg/injection, schedule: Q04DX003 (ip), vehicle: saline) was 100 % of control; the T/C (dose: 400.0 mg/kg/injection, schedule: Q04DX003 (ip), vehicle: saline) is 92 % of control.
Turning to `C#CCn1c2ccccc2c2ccccc21`, the T/C reads like this: under setting [5], 97 % of control; under setting [8], 95 % of control; under setting [6], 103 % of control; under setting [9], 101 % of control; under setting [7], 103 % of control; under setting [10], 96 % of control.
For `CCOC(=O)c1c(N)sc(C)c1C`, the T/C was 102 % of control under setting [11]; 94 % of control (dose: 200.0 mg/kg/injection, schedule: Q04DX003 (ip), vehicle: Klucel (hydroxypropylcellulose) (HPC)); 97 % of control (dose: 400.0 mg/kg/injection, schedule: Q04DX003 (ip), vehicle: Klucel (hydroxypropylcellulose) (HPC)).
On to `COC1OCC(O)C(NC(=O)N(C)N=O)C1O` (stereo unspecified), for which the T/C is, setting by setting: (dose: 6.25 mg/kg/injection, schedule: Q01DX009 (ip), vehicle: saline) 117 % of control; (dose: 12.5 mg/kg/injection, schedule: Q01DX009 (ip), vehicle: saline) 118 % of control; (dose: 16.5 mg/kg/injection, schedule: Q04DX003 (ip), vehicle: saline) 108 % of control; (dose: 25.0 mg/kg/injection, schedule: Q01DX009 (ip), vehicle: saline) 150 % of control and 154 % of control; (dose: 27.3 mg/kg/injection, schedule: Q04DX003 (ip), vehicle: saline) 112 % of control; (dose: 33.0 mg/kg/injection, schedule: Q04DX003 (ip), vehicle: saline) 118 % of control. For the same compound, the T/C reads like this: (dose: 37.5 mg/kg/injection, schedule: Q01DX009 (ip), vehicle: citric acid) 152 % of control; (dose: 75.0 mg/kg/injection, schedule: Q01DX009 (ip), vehicle: citric acid) 185 % of control; (dose: 100.0 mg/kg/injection, schedule: Q01DX009 (ip), vehicle: saline) 177 % of control and 224 % of control; (dose: 150.0 mg/kg/injection, schedule: Q04DX003 (ip), vehicle: saline) 167 % of control; (dose: 200.0 mg/kg/injection, schedule: Q01DX009 (ip), vehicle: saline) 92 % of control.
As to `Cc1ccc(Cl)c(NC(=O)Nc2ccccc2Cl)c1`, the T/C by setting is: under setting [1], 94 % of control and 90 % of control; under setting [2], 93 % of control; (dose: 400.0 mg/kg/injection, schedule: Q01DX009 (ip), vehicle: Klucel (hydroxypropylcellulose) (HPC)) 88 % of control and 89 % of control.
Regarding `COc1ccccc1N1CCN(CCc2c[nH]c3cc4c(cc23)OCO4)CC1`, the T/C is 103 % of control (dose: 3.12 mg/kg/injection, schedule: Q01DX009 (ip), vehicle: Klucel (hydroxypropylcellulose) (HPC)); 97 % of control and 110 % of control (dose: 6.25 mg/kg/injection, schedule: Q01DX009 (ip), vehicle: Klucel (hydroxypropylcellulose) (HPC)); 106 % of control and 111 % of control and 120 % of control (dose: 12.5 mg/kg/injection, schedule: Q01DX009 (ip), vehicle: Klucel (hydroxypropylcellulose) (HPC)); 94 % of control (dose: 12.5 mg/kg/injection, schedule: Q04DX003 (ip), vehicle: Klucel (hydroxypropylcellulose) (HPC)); 89 % of control (dose: 25.0 mg/kg/injection, schedule: Q01DX009 (ip), vehicle: Klucel (hydroxypropylcellulose) (HPC)); 102 % of control and 106 % of control (dose: 25.0 mg/kg/injection, schedule: Q01DX015 (ip), vehicle: carboxymethylcellulose (CMC)). Also, the T/C is, setting by setting: (dose: 25.0 mg/kg/injection, schedule: Q04DX003 (ip), vehicle: Klucel (hydroxypropylcellulose) (HPC)) 102 % of control; (dose: 50.0 mg/kg/injection, schedule: Q01DX015 (ip), vehicle: carboxymethylcellulose (CMC)) 104 % of control; (dose: 50.0 mg/kg/injection, schedule: Q04DX003 (ip), vehicle: Klucel (hydroxypropylcellulose) (HPC)) 105 % of control; under setting [1], 112 % of control; (dose: 100.0 mg/kg/injection, schedule: Q01DX015 (ip), vehicle: carboxymethylcellulose (CMC)) 118 % of control; under setting [11], 102 % of control.
For the compound `Nc1ncnc(Nc2ccccc2Oc2ccccc2)n1`, the T/C under setting [3] is 97 % of control; the T/C (dose: 200.0 mg/kg/injection, schedule: Q01DX001 (ip), vehicle: carboxymethylcellulose (CMC)) is 92 % of control; the T/C under setting [4] is 86 % of control.
As to `CCOC(=O)c1ccc(Nc2nnc(-c3c(OC)cc(OC)cc3OC)s2)cc1`, the T/C by setting is: (dose: 100.0 mg/kg/injection, schedule: Q04DX002 (ip), vehicle: saline with Tween-80) 93 % of control; (dose: 200.0 mg/kg/injection, schedule: Q04DX002 (ip), vehicle: saline with Tween-80) 104 % of control; (dose: 400.0 mg/kg/injection, schedule: Q04DX002 (ip), vehicle: saline with Tween-80) 101 % of control.
With `COc1ccc(OC)c(NC(=O)NNC(=O)c2ccccc2Cl)c1`, the T/C runs as follows: (dose: 25.0 mg/kg/injection, schedule: Q01DX009 (ip), vehicle: saline with Tween-80) 100 % of control; under setting [12], 91 % of control; under setting [8], 94 % of control.
`O=C(O)c1c[nH]n2c(=S)ncnc12`: the T/C by setting is: under setting [12], 97 % of control; under setting [8], 96 % of control and 103 % of control; (dose: 100.0 mg/kg/injection, schedule: Q04DX003 (ip), vehicle: saline with Tween-80) 96 % of control; under setting [9], 102 % of control and 103 % of control; (dose: 200.0 mg/kg/injection, schedule: Q04DX003 (ip), vehicle: saline with Tween-80) 94 % of control; under setting [10], 101 % of control.
On to `CC(=O)Oc1c(C(C)(C)C)cc([N+](=O)[O-])c(C)c1[N+](=O)[O-]`, for which the T/C (dose: 25.0 mg/kg/injection, schedule: Q04DX002 (ip), vehicle: Klucel (hydroxypropylcellulose) (HPC)) was 95 % of control and the T/C (dose: 50.0 mg/kg/injection, schedule: Q04DX002 (ip), vehicle: Klucel (hydroxypropylcellulose) (HPC)) was 97 % of control.
Consider `COc1ccc2c(c1)c(=NCCCCN=c1c3cc(OC)ccc3n(O)c3cc(Cl)ccc13)c1cc(Cl)ccc1n2O`, for which the T/C was 93 % of control (dose: 12.5 mg/kg/injection, schedule: Q01DX009 (ip), vehicle: other); 93 % of control (dose: 25.0 mg/kg/injection, schedule: Q01DX009 (ip), vehicle: other); 93 % of control and 101 % of control (dose: 50.0 mg/kg/injection, schedule: Q01DX009 (ip), vehicle: other); 101 % of control (dose: 100.0 mg/kg/injection, schedule: Q01DX009 (ip), vehicle: other); 101 % of control (dose: 200.0 mg/kg/injection, schedule: Q01DX009 (ip), vehicle: other).
